In ChEMBL document CHEMBL4630908 (2021):
Active and inactive are the calls of the source.

How the values were obtained:
Protein polybromo-1 = Protein polybromo-1 (Homo sapiens, UniProt Q86U86); test: PBRM1(5) DiscoverX BROMOscan
[1] = biological target: Transcription initiation factor TFIID subunit 1-like (Homo sapiens, UniProt Q8IZX4); test: TAF1L(2) DiscoverX BROMOscan
[2] = biological target: T1, Beta-2 adrenergic receptor (Homo sapiens, UniProt P07550); conditions: Compound concentration 10.0 uM
[3] = biological target: T2, Bromodomain-containing protein 2 (Homo sapiens, UniProt P25440); test: TR-FRET assay (BRD2 BD1)
[4] = biological target: T2, Bromodomain-containing protein 2; test: BRD2 BD2 Bromoscan (DiscoverX)
[5] = biological target: Delta-type opioid receptor (Homo sapiens) (UniProt P41143); conditions: Compound concentration 10.0 uM
[6] = biological target: T3, Bromodomain testis-specific protein (Homo sapiens, UniProt Q58F21); test: BRDT(1) DiscoverX BROMOscan
[7] = biological target: T2, Bromodomain-containing protein 2; test: BRD2(2) DiscoverX BROMOscan
[8] = biological target: T4, Bromodomain-containing protein 3 (Homo sapiens, UniProt Q15059); test: BRD3(2) DiscoverX BROMOscan
Mu-type opioid receptor [9] = biological target: T5, Mu-type opioid receptor (Homo sapiens, UniProt P35372); conditions: Compound concentration 10.0 uM
[10] = biological target: T3, Bromodomain testis-specific protein; test: TR-FRET assay (BRDT BD1)
[11] = biological target: 5-hydroxytryptamine receptor 1A (Homo sapiens) (UniProt P08908); conditions: Compound concentration 10.0 uM
[12] = biological target: T4, Bromodomain-containing protein 3; test: BET mutant TR-FRET assay (BRD3 BD2)
[13] = biological target: 5-hydroxytryptamine receptor 2C (Homo sapiens) (UniProt P28335); conditions: Compound concentration 10.0 uM
[14] = biological target: 5-hydroxytryptamine receptor 5A (Homo sapiens) (UniProt P47898); conditions: Compound concentration 10.0 uM
[15] = biological target: T6, Kappa-type opioid receptor (Homo sapiens, UniProt P41145); conditions: Compound concentration 10.0 uM
[16] = biological target: D(4) dopamine receptor (Homo sapiens) (UniProt P21917); conditions: Compound concentration 10.0 uM
[17] = biological target: Bromodomain and PHD finger-containing protein 3 (Homo sapiens, UniProt Q9ULD4); test: BRPF3 DiscoverX BROMOscan
[18] = biological target: Histamine H2 receptor (Homo sapiens) (UniProt P25021); conditions: Compound concentration 10.0 uM
[19] = biological target: Muscarinic acetylcholine receptor M3 (Homo sapiens) (UniProt P20309); conditions: Compound concentration 10.0 uM
[20] = biological target: T3, Bromodomain testis-specific protein; test: BRDT BD2 Bromoscan (DiscoverX)
[21] = biological target: Bromodomain and WD repeat-containing protein 1 (Homo sapiens, UniProt Q9NSI6); test: WDR9(2) DiscoverX BROMOscan
[22] = biological target: 5-hydroxytryptamine receptor 1D (Homo sapiens, UniProt P28221); conditions: Compound concentration 10.0 uM
Mu-type opioid receptor [23] = biological target: T5, Mu-type opioid receptor; test: (§1) Cross screening panel
Histamine H1 receptor = Histamine H1 receptor (Homo sapiens, UniProt P35367); test: as §1
Substance-P receptor = Substance-P receptor (Homo sapiens, UniProt P25103); test: as §1
[24] = biological target: Potassium voltage-gated channel subfamily A member 5 (Homo sapiens, UniProt P22460); test: as §1
[25] = biological target: Voltage-dependent L-type calcium channel subunit alpha-1C (Homo sapiens, UniProt Q13936); test: as §1
Acetylcholinesterase = Acetylcholinesterase (Homo sapiens, UniProt P22303); test: as §1
[26] = biological target: 5-hydroxytryptamine receptor 2A (Homo sapiens, UniProt P28223); test: as §1
[27] = biological target: Muscarinic acetylcholine receptor M1 (Homo sapiens, UniProt P11229); test: as §1
Aurora kinase B = Aurora kinase B (Homo sapiens, UniProt Q96GD4); test: as §1
[28] = biological target: Sodium channel protein type 5 subunit alpha (Homo sapiens, UniProt Q14524); test: as §1
[29] = biological target: 5-hydroxytryptamine receptor 1B (Homo sapiens, UniProt P28222); test: as §1
[30] = biological target: Muscarinic acetylcholine receptor M2 (Homo sapiens, UniProt P08172); test: as §1
[31] = biological target: 3',5'-cyclic-AMP phosphodiesterase 4B (Homo sapiens, UniProt Q07343); test: as §1
[32] = biological target: cGMP-inhibited 3',5'-cyclic phosphodiesterase 3A (Homo sapiens, UniProt Q14432); test: as §1
[33] = biological target: Tyrosine-protein kinase Lck (Homo sapiens, UniProt P06239); test: as §1
[34] = biological target: 5-hydroxytryptamine receptor 2C (Homo sapiens, UniProt P28335); test: as §1
[35] = biological target: Phosphatidylinositol 4,5-bisphosphate 3-kinase catalytic subunit gamma isoform (Homo sapiens, UniProt P48736); test: as §1
[36] = biological target: Glutamate receptor ionotropic, NMDA 2B (Homo sapiens, UniProt Q13224); test: as §1
Adenosine receptor A2a = Adenosine receptor A2a (Homo sapiens, UniProt P29274); test: as §1
[37] = biological target: Alpha-1B adrenergic receptor (Homo sapiens, UniProt P35368); test: as §1
Vasopressin V1a receptor = Vasopressin V1a receptor (Homo sapiens, UniProt P37288); test: as §1
[38] = biological target: Aryl hydrocarbon receptor (Homo sapiens, UniProt P35869); test: as §1
[39] = biological target: 5-hydroxytryptamine receptor 3A (Homo sapiens, UniProt P46098); test: as §1
[40] = biological target: T1, Beta-2 adrenergic receptor; test: as §1
Target sequence in this assay (P07550 whole entry): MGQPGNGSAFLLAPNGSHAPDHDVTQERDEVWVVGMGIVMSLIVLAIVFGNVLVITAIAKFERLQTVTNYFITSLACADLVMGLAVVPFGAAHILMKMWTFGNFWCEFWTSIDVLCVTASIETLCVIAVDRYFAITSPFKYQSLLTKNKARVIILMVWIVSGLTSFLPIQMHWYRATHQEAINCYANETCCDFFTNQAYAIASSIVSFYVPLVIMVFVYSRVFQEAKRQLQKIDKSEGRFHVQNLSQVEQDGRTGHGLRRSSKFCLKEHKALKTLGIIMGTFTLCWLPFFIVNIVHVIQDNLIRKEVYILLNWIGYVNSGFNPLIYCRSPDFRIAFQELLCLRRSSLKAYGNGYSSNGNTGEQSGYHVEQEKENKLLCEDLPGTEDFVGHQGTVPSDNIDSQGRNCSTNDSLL

[41] = biological target: Alpha-2C adrenergic receptor (Homo sapiens, UniProt P18825); test: as §1
[42] = biological target: Sodium-dependent serotonin transporter (Homo sapiens, UniProt P31645); test: as §1
[43] = biological target: Solute carrier organic anion transporter family member 1B1 (Homo sapiens, UniProt Q9Y6L6); test: as §1
Cannabinoid receptor 2 = Cannabinoid receptor 2 (Homo sapiens, UniProt P34972); test: as §1
D(2) dopamine receptor = D(2) dopamine receptor (Homo sapiens, UniProt P14416); test: as §1
[44] = biological target: Acetylcholine receptor subunit alpha (Homo sapiens, UniProt P02708); test: as §1
[45] = biological target: Nuclear receptor subfamily 1 group I member 2 (Homo sapiens, UniProt O75469); test: as §1
[46] = biological target: T6, Kappa-type opioid receptor; test: as §1
[47] = biological target: Prostaglandin G/H synthase 2 (Homo sapiens, UniProt P35354); test: as §1
[48] = biological target: Amine oxidase [flavin-containing] A (Homo sapiens, UniProt P21397); test: as §1
D(1A) dopamine receptor = D(1A) dopamine receptor (Homo sapiens, UniProt P21728); test: as §1
Peregrin = Peregrin (Homo sapiens, UniProt P55201); test: BRPF1 DiscoverX BROMOscan
[49] = biological target: Histone acetyltransferase p300 (Homo sapiens, UniProt Q09472); test: EP300 DiscoverX BROMOscan

T2 sequence (P25440 whole entry): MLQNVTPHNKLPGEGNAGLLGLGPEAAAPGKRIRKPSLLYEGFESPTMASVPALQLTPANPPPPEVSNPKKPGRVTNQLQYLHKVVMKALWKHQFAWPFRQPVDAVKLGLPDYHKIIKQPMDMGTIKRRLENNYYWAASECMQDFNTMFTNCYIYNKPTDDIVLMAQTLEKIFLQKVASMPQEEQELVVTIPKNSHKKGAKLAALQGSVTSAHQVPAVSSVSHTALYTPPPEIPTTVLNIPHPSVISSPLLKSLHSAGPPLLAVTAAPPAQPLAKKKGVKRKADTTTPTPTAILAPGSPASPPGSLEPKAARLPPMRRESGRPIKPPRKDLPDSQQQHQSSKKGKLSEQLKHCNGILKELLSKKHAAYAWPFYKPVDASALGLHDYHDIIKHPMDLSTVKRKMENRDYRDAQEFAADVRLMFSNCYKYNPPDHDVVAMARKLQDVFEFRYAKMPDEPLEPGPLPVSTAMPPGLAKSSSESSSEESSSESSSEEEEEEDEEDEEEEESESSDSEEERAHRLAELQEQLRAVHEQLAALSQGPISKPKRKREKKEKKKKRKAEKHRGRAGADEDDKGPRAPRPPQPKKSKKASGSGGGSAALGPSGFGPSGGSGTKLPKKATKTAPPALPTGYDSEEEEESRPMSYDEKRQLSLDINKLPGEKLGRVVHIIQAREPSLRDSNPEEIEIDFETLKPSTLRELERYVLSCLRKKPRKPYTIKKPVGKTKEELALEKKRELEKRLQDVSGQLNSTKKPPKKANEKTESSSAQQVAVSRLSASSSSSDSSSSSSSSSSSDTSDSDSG
T6 sequence (P41145 whole entry): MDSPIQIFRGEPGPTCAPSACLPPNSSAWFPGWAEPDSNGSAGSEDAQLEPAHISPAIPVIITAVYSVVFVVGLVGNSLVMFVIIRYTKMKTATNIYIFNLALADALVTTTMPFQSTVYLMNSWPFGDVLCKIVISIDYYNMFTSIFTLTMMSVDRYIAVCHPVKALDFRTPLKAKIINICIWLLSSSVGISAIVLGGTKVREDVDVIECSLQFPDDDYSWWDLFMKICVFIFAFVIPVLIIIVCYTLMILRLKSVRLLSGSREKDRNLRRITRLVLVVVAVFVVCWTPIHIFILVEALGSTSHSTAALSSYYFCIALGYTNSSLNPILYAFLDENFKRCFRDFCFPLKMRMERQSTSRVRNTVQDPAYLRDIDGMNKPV
T5 sequence (P35372 whole entry): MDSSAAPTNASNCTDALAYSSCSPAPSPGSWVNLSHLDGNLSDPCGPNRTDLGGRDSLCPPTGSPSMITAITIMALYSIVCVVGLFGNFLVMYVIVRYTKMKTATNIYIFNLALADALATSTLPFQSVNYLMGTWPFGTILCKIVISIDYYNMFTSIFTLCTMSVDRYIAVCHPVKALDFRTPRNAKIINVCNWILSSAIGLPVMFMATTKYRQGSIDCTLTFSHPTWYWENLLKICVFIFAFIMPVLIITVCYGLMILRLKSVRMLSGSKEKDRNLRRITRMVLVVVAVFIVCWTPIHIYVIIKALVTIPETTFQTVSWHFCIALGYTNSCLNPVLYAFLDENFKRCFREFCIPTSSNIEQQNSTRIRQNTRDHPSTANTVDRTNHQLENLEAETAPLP
Acetylcholine receptor subunit alpha, sequence (P02708 whole entry): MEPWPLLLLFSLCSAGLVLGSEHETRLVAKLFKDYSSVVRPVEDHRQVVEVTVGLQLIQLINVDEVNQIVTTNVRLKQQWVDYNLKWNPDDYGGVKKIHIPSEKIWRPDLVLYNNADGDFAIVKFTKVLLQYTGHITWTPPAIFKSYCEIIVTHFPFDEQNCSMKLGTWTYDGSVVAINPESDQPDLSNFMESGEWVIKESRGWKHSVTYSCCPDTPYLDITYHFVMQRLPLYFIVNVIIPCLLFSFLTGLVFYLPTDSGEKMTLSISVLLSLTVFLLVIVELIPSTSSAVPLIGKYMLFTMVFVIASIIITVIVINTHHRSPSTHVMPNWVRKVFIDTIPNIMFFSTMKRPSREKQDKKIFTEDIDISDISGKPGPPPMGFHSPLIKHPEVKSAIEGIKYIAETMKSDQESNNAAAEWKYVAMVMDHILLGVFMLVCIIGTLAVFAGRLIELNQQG
5-hydroxytryptamine receptor 3A, sequence (P46098 whole entry): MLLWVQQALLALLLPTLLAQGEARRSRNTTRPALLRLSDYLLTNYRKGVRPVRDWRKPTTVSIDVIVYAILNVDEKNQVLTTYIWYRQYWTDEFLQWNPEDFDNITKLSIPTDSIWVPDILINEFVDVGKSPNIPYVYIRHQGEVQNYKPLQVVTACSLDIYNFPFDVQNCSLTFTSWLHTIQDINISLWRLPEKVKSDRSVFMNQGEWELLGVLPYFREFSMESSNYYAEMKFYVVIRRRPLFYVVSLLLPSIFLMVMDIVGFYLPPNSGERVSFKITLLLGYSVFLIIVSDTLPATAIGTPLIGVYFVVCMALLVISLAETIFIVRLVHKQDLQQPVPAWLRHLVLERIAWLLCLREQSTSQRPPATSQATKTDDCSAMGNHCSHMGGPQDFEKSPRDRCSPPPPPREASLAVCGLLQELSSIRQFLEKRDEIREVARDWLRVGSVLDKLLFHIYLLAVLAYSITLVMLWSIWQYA
Muscarinic acetylcholine receptor M2, sequence (P08172 whole entry): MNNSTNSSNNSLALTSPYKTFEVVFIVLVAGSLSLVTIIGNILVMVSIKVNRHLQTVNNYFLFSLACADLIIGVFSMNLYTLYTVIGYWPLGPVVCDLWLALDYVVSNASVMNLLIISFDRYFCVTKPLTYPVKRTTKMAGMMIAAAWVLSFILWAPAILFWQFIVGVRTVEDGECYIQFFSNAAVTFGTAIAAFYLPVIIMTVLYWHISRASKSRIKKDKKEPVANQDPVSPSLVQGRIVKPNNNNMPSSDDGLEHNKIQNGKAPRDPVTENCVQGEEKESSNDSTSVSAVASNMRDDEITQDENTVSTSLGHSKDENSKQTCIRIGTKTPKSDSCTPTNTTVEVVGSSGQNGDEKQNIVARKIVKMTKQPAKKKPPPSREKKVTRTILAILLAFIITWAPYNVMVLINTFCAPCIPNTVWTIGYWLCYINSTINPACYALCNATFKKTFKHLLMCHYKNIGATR
D(2) dopamine receptor, sequence (P14416 whole entry): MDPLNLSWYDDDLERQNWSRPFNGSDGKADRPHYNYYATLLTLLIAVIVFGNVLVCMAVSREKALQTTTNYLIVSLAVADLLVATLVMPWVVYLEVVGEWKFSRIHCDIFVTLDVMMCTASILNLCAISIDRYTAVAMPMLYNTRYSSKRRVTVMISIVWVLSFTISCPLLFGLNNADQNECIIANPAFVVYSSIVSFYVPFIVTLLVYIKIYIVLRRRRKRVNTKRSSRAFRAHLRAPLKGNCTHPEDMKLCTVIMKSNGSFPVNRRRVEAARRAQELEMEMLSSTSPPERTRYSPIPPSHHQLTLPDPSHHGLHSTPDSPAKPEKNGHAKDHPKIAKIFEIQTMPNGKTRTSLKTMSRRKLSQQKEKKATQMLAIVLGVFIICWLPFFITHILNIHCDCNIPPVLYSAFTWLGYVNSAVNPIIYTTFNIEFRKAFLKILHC
Muscarinic acetylcholine receptor M1, sequence (P11229 whole entry): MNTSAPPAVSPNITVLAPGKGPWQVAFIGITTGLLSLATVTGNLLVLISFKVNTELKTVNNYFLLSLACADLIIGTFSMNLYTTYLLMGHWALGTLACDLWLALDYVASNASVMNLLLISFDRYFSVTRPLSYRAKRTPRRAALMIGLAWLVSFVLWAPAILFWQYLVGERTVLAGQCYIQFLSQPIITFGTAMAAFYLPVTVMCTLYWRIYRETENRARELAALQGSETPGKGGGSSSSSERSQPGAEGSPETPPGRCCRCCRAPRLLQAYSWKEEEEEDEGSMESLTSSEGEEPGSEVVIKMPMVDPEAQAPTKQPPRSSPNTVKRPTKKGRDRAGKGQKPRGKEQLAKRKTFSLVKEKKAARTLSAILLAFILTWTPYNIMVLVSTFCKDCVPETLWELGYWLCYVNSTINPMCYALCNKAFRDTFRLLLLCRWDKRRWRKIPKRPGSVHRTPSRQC
5-hydroxytryptamine receptor 1B, sequence (P28222 whole entry): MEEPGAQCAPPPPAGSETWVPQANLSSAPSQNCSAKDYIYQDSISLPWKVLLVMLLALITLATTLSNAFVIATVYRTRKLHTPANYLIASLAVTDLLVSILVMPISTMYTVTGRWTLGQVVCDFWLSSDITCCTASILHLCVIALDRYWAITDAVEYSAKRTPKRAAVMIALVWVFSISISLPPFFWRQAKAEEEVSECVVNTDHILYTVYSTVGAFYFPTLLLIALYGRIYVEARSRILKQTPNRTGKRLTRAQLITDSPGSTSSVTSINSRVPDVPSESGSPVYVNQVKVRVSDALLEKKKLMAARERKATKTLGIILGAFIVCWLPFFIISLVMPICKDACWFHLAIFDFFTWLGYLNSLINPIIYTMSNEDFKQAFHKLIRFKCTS

CC(=O)Nc1c(F)cc(C(=O)N[C@H]2CC[C@H](O)CC2)cc1O[C@@H](C)c1ccccc1 [GSK046]
25.1 µM: IC50 [44]
inactive: inhibition [2] 28.1% | inhibition [5] 27.1% | inhibition (Mu-type opioid receptor [9]) 20.4% | inhibition [11] -8.96% | inhibition [13] 14% | inhibition [14] -8.96% | inhibition [15] 9.38% | inhibition [16] 36% | inhibition [18] -7.57% | inhibition [19] 16%
2.45 µM: Kd [6]
0.035 µM: Kd [7]
active: Kd [4] 0.035 µM | Kd [20] 0.015 µM | inhibition [22] 84.2%
> 50.1 µM: IC50 [24] | EC50 [27] | IC50 [27] | EC50 [30] | IC50 [30] | IC50 [36] | EC50 [39] | IC50 [39] | IC50 [43] | EC50 [44] | EC50 [45]
30 µM: Kd (Protein polybromo-1) | Kd [1] | Kd [17] | Kd [21] | Kd (Peregrin) | Kd [49]
> 50.1 µM (not active): IC50 [10]
0.033 µM: Kd [8]
> 25.1 µM: IC50 (Histamine H1 receptor) | IC50 (Substance-P receptor) | EC50 [26] | EC50 [34] | Ki [37]
> 100 µM: EC50 (Mu-type opioid receptor [23]) | IC50 [28] | EC50 [29] | IC50 [29] | IC50 [31] | IC50 [32] | EC50 [38] | EC50 [40] | IC50 [40] | EC50 [41] | IC50 [42] | EC50 (Cannabinoid receptor 2) | EC50 (D(2) dopamine receptor) | Ki (D(2) dopamine receptor) | EC50 [46] | IC50 [47] | IC50 [48] | IC50 (D(1A) dopamine receptor)
> 39.8 µM: IC50 (Vasopressin V1a receptor)
7.94 µM: IC50 (Acetylcholinesterase)
> 31.6 µM: IC50 (Aurora kinase B) | IC50 [33] | IC50 [35]
31.6 µM: EC50 (Adenosine receptor A2a)
100 µM: IC50 [25]
7: pIC50 [12]
11 µM (not active): IC50 [3]
